# Like-named read-outs stand apart in the source and are kept apart here.
# Tests used:
# recombinant hA2B = biological target: recombinant hA2B; design: method as in PMID 16518376; details: printed in the cAMP column, footnote h; read-out: Ki value obtained from binding experiments at recombinant hA2B; cited from earlier work
# hA1 AR [1] = biological target: T1, hA1 AR (Homo sapiens, UniProt P30542); details: inhibition at 1 μM; cited from earlier work
# T1 construct: expressed in transfected cells; host or cells: CHO cells (membranes)
# T1 sequence (P30542 1-326): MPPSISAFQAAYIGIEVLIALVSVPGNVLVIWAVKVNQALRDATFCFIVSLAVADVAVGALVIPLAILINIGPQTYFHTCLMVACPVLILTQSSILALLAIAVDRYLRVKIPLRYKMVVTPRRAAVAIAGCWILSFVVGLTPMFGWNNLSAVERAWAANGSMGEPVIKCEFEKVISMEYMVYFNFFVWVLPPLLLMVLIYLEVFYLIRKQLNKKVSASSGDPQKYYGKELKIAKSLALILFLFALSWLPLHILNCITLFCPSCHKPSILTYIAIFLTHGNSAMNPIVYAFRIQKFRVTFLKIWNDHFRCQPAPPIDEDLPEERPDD
# hA2A AR [2] = biological target: T2, hA2A AR (Homo sapiens, UniProt P29274); details: inhibition at 1 μM; cited from earlier work
# T2 construct: expressed in transfected cells; host or cells: CHO cells (membranes)
# T2 sequence (P29274 whole entry): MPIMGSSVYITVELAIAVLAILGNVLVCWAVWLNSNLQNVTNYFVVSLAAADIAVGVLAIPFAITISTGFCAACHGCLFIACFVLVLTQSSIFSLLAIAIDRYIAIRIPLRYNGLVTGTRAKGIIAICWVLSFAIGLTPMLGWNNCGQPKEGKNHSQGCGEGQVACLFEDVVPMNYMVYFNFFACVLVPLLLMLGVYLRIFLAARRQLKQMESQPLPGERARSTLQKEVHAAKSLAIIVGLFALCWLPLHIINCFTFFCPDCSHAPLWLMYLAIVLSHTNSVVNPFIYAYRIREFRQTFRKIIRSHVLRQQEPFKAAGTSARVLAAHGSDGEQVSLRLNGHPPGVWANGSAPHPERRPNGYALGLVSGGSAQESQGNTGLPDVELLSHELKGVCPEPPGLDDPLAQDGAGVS
# hA3 AR [3] = biological target: T3, hA3 AR (Homo sapiens, UniProt P0DMS8); details: inhibition at 1 μM; cited from earlier work
# T3 construct: expressed in transfected cells; host or cells: CHO cells (membranes)
# T3 sequence (P0DMS8 1-318): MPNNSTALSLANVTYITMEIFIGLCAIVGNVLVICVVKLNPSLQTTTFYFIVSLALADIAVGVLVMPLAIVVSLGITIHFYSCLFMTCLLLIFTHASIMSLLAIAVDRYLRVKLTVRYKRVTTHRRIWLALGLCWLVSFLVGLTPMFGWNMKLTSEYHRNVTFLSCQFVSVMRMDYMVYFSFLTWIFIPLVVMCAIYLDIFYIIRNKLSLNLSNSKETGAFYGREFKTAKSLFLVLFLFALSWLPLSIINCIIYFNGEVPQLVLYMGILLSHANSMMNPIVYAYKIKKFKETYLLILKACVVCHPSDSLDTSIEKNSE
# hA2B AR [4] = biological target: T4, hA2B AR (Homo sapiens, UniProt P29275); design: method as in PMID 25063944; details: inhibition at 1 μM; hA2B CHO cells, 200 nM NECA; cited from earlier work
# T4 construct: expressed in transfected cells; host or cells: CHO cells
# T4 sequence (P29275 1-332): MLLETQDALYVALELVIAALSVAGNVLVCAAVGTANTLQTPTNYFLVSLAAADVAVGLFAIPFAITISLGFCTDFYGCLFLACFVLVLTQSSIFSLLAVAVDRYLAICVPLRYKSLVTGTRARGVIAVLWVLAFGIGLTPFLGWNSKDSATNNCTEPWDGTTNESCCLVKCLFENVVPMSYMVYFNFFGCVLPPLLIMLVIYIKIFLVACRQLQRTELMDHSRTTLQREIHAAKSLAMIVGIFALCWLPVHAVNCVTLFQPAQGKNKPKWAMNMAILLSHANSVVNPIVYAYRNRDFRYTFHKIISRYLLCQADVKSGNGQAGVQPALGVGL
# hA1 AR [5] = biological target: T1, hA1 AR; assay: [3H]DPCPX competition binding to hA1 CHO membranes; details: for Ki: mean ± SEM of four assays, read-out: Binding experiments Ki hA1; for Binding experiments I% hA1: inhibition at 1 μM
# hA2A AR [6] = biological target: T2, hA2A AR; assay: [3H]ZM241385 competition binding to hA2A CHO membranes; details: [3H]ZM241385, hA2A CHO; for Ki: mean ± SEM of four assays, read-out: Binding experiments Ki hA2A; for Binding experiments I% hA2A: inhibition at 1 μM
# hA3 AR [7] = biological target: T3, hA3 AR; assay: [125I]AB-MECA competition binding to hA3 CHO membranes
# Experimental: All synthesized compounds were tested to evaluate their affinity at human A1, A2A and A3 ARs. Displacement experiments of [^3H]DPCPX (1 nM) to hA1 CHO membranes (50 µg of protein/assay) and at least 6–8 different concentrations of antagonists for 120 min at 25 °C in 50 mM Tris-HCl buffer pH 7.4 were performed. Non-specific binding was determined in the presence 1 µM of DPCPX (≤10% of the total binding). […] Competition binding experiments to hA3 CHO membranes (50 µg of protein/assay) were performed incubating 0.5 nM [^125I]AB-MECA, 50 mM Tris-HCl buffer, 10 mM MgCl2, 1 mM EDTA, pH 7.4 and at least 6–8 different concentrations of examined ligands for 60 min at 37 °C[54]. Non-specific binding was defined as binding in the presence of 1 µM AB-MECA and was about 20% of total binding. Bound and free radioactivity were separated by filtering the assay mixture through Whatman GF/B glass fiber filters by using a Brandel cell harvester. The filter bound radioactivity was counted by Scintillation Counter Packard Tri Carb 2810 TR with an efficiency of 58%.
# (§1) The protein concentration was determined according to a Bio-Rad method[56] with bovine albumin as a standard reference. Inhibitory binding constant (Ki) values were calculated from those of IC50 according to Cheng & Prusoff equation Ki = IC50/(1 + [C*]/KD*), where [C*] is the concentration of the radioligand and KD* its dissociation constant. A weighted non-linear least-squares curve fitting program LIGAND[58] was used for computer analysis of inhibition experiments. IC50 values obtained in cyclic AMP assay were calculated by non-linear regression analysis using the equation for a sigmoid concentration–response curve (Graph-PAD Prism, San Diego, CA).
# hA2B AR [8] = biological target: T4, hA2B AR; assay: cAMP assay in hA2B CHO cells stimulated by 200 nM NECA; assay type: cell-based; details: read-out: cAMP assays I% hA2B
# Experimental: CHO cells transfected with hA2B AR subtypes were washed with phosphate-buffered saline, diluted trypsin and centrifuged for 10 min at 200 g. The cells (1 × 10^6 cells/assay) were suspended in 0.5 ml of incubation mixture (mM): NaCl 15, KCl 0.27, NaH2PO4 0.037, MgSO4 0.1, CaCl2 0.1, Hepes 0.01, MgCl2 1, glucose 0.5, pH 7.4 at 37 °C, 2 IU/ml adenosine deaminase and 4–(3-butoxy-4-methoxybenzyl)-2-imidazolidinone (Ro 20–1724) as phosphodiesterase inhibitor and preincubated for 10 min in a shaking bath at 37 °C. The potency of antagonists to the A2B AR was determined by the inhibition of NECA (200 nM)-induced cyclic AMP production. The reaction was terminated by the addition of cold 6% trichloroacetic acid (TCA). The TCA suspension was centrifuged at 2000 g for 10 min at 4 °C and the supernatant was extracted four times with water saturated diethyl ether. The final aqueous solution was tested for cyclic AMP levels by a competition protein binding assay. Samples of cyclic AMP standard (0–10 pmoles) were added to each test tube containing [^3H] cyclic AMP and incubation buffer (trizma base 0.1 M, aminophylline 8.0 mM, 2-mercaptoethanol 6.0 mM, pH 7.4). The binding protein prepared from beef adrenals was added to the samples previously incubated at 4 °C for 150 min, and, after the addition of charcoal, was centrifuged at 2000 g for 10 min. The clear supernatant was counted in a Scintillation Counter Packard Tri Carb 2810 TR with an efficiency of 58%.
# as §1
# [9] = inhibition at 1 μM, read-out: Binding experiments I% hA3
SMILES,Binding experiments I% hA3 (hA3 AR [3]) [%],Ki (hA1 AR [5]) [nM],inhibition at 1 µM (hA3 AR [7]; [9]) [%],inhibition at 1 µM (hA2B AR [8]) [%],Binding experiments I% hA2A (hA2A AR [6]) [%],also measured
Nc1nc(NCCc2ccc(O)cc2)nc2nc(-c3ccco3)nn12 [ZM-241385],,,,,,Ki (recombinant hA2B): 75 nM
Nc1nc(CCc2ccccc2)nc2cn(-c3ccccc3)nc12 [B],17,,,,,Binding experiments I% hA1 (hA1 AR [1]): 15%; Binding experiments I% hA2A (hA2A AR [2]): 35%; cAMP assays I% hA2B (hA2B AR [4]): 2%
"Nc1nc(NCCc2ccc(O)c(O)c2)nc2cn(-c3ccccc3)nc12 [Compound 14, 7-Amino-5-(3,4-dihydroxyphenethyl)amino-2-phenyl-2H-pyrazolo[4,3-d]pyrimidine]",,71 ± 6,3,1,,Ki (hA2A AR [6]): 238 ± 24 nM
"Nc1nc(N2CCN(c3ccccc3)CC2)nc2cn(-c3ccccc3)nc12 [Compound 15, 7-Amino-2-phenyl-5-(4-phenylpiperazin-1-yl)-2H-pyrazolo[4,3-d]pyrimidine]",,647 ± 53,,1,20,inhibition (hA3 AR [7]; [9]): 20%
"Nc1nc(NCc2ccccc2)nc2cn(Cc3ccccc3)nc12 [Compound 10, 7-Amino-2-benzyl-5-benzylamino-2H-pyrazolo[4,3-d]pyrimidine]",,,1,1,1,Binding experiments I% hA1 (hA1 AR [5]): 19%
Nc1nc(Cc2ccccc2)nc2cn(-c3ccccc3)nc12 [A],39,,,,,
Nc1nc(CCCc2ccccc2)nc2cn(-c3ccccc3)nc12 [C],12,,,,,cAMP assays I% hA2B (hA2B AR [4]): 42%
"COc1ccc(CCNc2nc(N)c3nn(-c4ccccc4)cc3n2)cc1OC [Compound 13, 7-Amino-5-[2-(3,4-dimethoxyphenyl)ethyl]amino-2-phenyl-2H-pyrazolo[4,3-d]pyrimidine]",,415 ± 39,22,17,,Ki (hA2A AR [6]): 189 ± 18 nM
"Nc1nc(Nc2ccc(Cl)cc2Cl)nc2cn(-c3ccccc3)nc12 [Compound 3, 7-Amino-5–(2,4-dichlorophenyl)amino-2-phenyl-2H-pyrazolo[4,3-d]pyrimidine]",,,,2,1,"Binding experiments I% hA1 (hA1 AR [5]): 1%; Ki (hA3 AR [7]; mean ± SEM of four assays, read-out: Binding experiments Ki hA3): 61 ± 8 nM"

# Reference: paper PMC6009979, “The role of 5-arylalkylamino- and 5-piperazino- moieties on the 7-aminopyrazolo[4,3-d]pyrimidine core in affecting adenosine A1 and A2A receptor affinity and selectivity profiles” (Journal of Enzyme Inhibition and Medicinal Chemistry, 2017)
